Assay results from US11304919B2, “Utilization of cilastatin in inhibiting renal disorder” (NIIGATA UNIVERSITY, priority 2018, dated 2022).

Experiments:
[1] = system: protein (carrier) used in Reference Example 5; conditions: 0-50 mM cilastatin; 10 mM iomeprol, ioversol, iodixanol, iopromide or iohexol solid-phased beads; FIGS. 22-26
Description: Different solutions, as mentioned below, were prepared using 100 mM KCL buffer (as mentioned in Reference Example 4) and the protein used in Reference Example 5, and were reacted at 4° C. for 2 hours.
a) Solution containing 25 ng/μL of the protein of interest and 0 mM of the contrast medium
b) Solution containing 25 ng/μL of the protein of interest and 10 mM of the contrast medium
c) Solution containing 25 ng/μL of the protein of interest and 25 mM of the contrast medium
d) Solution containing 25 ng/μL of the protein of interest and 50 mM of the contrast medium
Next, the above-prepared solutions were each added to 5 mg of the 0 mM or 10 mM contrast solid-phased beads dispersed and washed by the procedure described in Reference Example 4, and were reacted at 4° C. for 4 hours. The solution/beads combinations adopted were as mentioned below.
Then, the different mixtures were treated by following the procedure described in Reference Example 4, and heat-eluted samples were prepared from the different reaction solutions.
Different solutions, as mentioned below, were prepared using 100 mM KCL buffer (as mentioned in Reference Example 4), and were reacted at 4° C. for 2 hours.
a′) Solution containing 25 ng/μL of the protein of interest and 0 mM of cilastatin
b′) Solution containing 25 ng/μL of the protein of interest and 10 mM of cilastatin […]

[2] = system: C57BL/6J mice; test: Inhibition of contrast-induced renal injuries in murine contrast nephropathy model (Example 2); type: in vivo, mouse; conditions: 200 μL iomeprol + 400 mg/kg cilastatin
Description: In order to confirm the ability of cilastatin to inhibit renal injuries, C57BL/6J mice were simultaneously administered with an iodinated contrast medium and cilastatin, and the results were analyzed.
Left kidneys were extracted from the C57BL/6J mice, and 14 days later, right kidney pedicles were ligated for 30 minutes. Thereafter, reperfusion was carried out. […]
a) Contrast medium+cilastatin-treated group: 200 μL of iomeprol (CM)+400 mg/kg cilastatin (CS) (100 LL) b) Contrast medium+normal saline-treated group: 200 μL of iomeprol (CM)+100 μL of NS For each of the groups, after 48 hours from the medication, blood and urine samples were collected, and serum Cr, MN and cystatin C levels, and urinary Cr, NAG and KIM-1 levels were measured. Further, right kidneys were extracted and histologically evaluated by immunostaining with KIM-1 and staining with PAS. […] Serum cystatin C and urinary KIM-1 measurements were contracted to Oriental Yeast Co., Ltd.
0.5±: Clear but weak granular staining present focally along the luminal surface of non-atrophic proximal tubules 1+: Clear but weak granular staining completely surrounding the luminal surface of non-atrophic proximal tubules 2+: Moderately intense granular staining completely surrounding the luminal surface of non-atrophic proximal tubules and extending into intercellular junctions 3+: Strong large granular staining completely surrounding the luminal surface of non-atrophic proximal tubules and extending into intercellular junctions […]
Individuals meeting these criteria were regarded as individuals with onset of contrast nephropathy.

[3] = biological target: T1, megalin (Mus musculus, UniProt A2ARV4)
Description: In this example, it was verified, using an electron probe microanalyzer (EPMA), whether megalin-dependent internalization of contrast media (iodine) into murine renal proximal tubular epithelial cells was inhibited by treatment with cilastatin.
C57BL/6J mice were divided into the following groups and administered with the following agents from the tail vein.
Therefore, by calculating a ratio of X-ray intensity between iodine (I) and nitrogen (N) (I/N) in a specified area of thin-film biological samples, iodine (I) levels in different samples can be relatively quantified and compared. X-ray count ratio=(X-ray count of iodine/unit area)/(X-ray count of nitrogen/(unit area))
Based on this principle, iodine levels in a specified area were relatively quantified and compared.
Further, 1980 μm^2 regions containing cortex portions were analyzed, and seven 500 μm^2 areas were chosen from the cortex portions so as not to overlap with each other. An average was calculated of the I/N X-ray ratios in the seven areas, and regarded as an I/N X-ray ratio for one individual. Those I/N X-ray ratios for six individuals in each of the a) and b) groups were quantified and compared.

[4] = biological target: megalin (Rattus norvegicus, UniProt P98158); conditions: 1 mg cilastatin injected in advance; 1.5 μg protein of interest; FIG. 27
Description: According to the method of Orlando, et al, megalin protein purified from Sprague-Dawley (SD) rat kidneys was immobilized on quartz crystals. To be specific, with the use of an immobilization kit for AFFNIX® (Initium Inc.) and according to the recommended protocol for the kit, a megalin protein solution was prepared in Buffer A as provided with the kit to a concentration of 62.5 μg/mL, and placed and immobilized onto quartz crystals mounted in a holder.
More specifically, the protein of interest was injected in aliquots of the megalin protein-immobilized quartz crystals in 200 μL of buffer to measure frequency. The same measurement was done on quartz crystals, as a control, on which the same amount of bovine serum albumin (BAS) was solid phased instead of megalin. Thus, the specific binding ability of the protein of interest to megalin was analyzed.
Further, aliquots of megalin protein-immobilized quartz crystals in a buffer in which 1 mg of cilastatin was injected in advance were mounted in the measurement instrument, and the frequency was confirmed to be stable, and then, 1.5 μg of the protein of interest was injected to measure frequency over time, whereby the antagonizing activity of cilastatin against the binding of the protein of interest to megalin was analyzed. The same experiment was performed for the control group.

[5] = system: megalin; conditions: mouse, in vivo
Description: (§1) EPMA is an electron microprobe (EMP) instrument that analyzes the constituent elements of a substance of interest by irradiating electron beams onto the substance and measuring the wavelengths and intensities of characteristic X-rays unique to the different elements, which are generated by the electron beams. […] The behaviors of contrast media per se can be verified by analyzing iodine content distribution.
(§2) In order to use right kidneys for analysis, 3 mm-thick sections containing a kidney pedicle portion were prepared, embedded in OCT compound, freeze-fixed with liquid nitrogen, and stored at −80° C.
(§3) Next, the stored sections were sliced at a thickness of 4 μm using a cryostat (CM1850, Leica Biosystems), and the obtained slices were attached onto carbon-coated grids and freeze-dried overnight.
(§4) 378 μm^2 cortical areas in the prepared tissue slices were analyzed by EPMA (EPMA 1610, Shimadzu Corporation, Kyoto, Japan) to map iodine present in the structures of the contrast media.

[6] = biological target: T1, megalin; conditions: in vivo
Description: as §1, §2, §3, §4

T1 sequence (A2ARV4 26-4660): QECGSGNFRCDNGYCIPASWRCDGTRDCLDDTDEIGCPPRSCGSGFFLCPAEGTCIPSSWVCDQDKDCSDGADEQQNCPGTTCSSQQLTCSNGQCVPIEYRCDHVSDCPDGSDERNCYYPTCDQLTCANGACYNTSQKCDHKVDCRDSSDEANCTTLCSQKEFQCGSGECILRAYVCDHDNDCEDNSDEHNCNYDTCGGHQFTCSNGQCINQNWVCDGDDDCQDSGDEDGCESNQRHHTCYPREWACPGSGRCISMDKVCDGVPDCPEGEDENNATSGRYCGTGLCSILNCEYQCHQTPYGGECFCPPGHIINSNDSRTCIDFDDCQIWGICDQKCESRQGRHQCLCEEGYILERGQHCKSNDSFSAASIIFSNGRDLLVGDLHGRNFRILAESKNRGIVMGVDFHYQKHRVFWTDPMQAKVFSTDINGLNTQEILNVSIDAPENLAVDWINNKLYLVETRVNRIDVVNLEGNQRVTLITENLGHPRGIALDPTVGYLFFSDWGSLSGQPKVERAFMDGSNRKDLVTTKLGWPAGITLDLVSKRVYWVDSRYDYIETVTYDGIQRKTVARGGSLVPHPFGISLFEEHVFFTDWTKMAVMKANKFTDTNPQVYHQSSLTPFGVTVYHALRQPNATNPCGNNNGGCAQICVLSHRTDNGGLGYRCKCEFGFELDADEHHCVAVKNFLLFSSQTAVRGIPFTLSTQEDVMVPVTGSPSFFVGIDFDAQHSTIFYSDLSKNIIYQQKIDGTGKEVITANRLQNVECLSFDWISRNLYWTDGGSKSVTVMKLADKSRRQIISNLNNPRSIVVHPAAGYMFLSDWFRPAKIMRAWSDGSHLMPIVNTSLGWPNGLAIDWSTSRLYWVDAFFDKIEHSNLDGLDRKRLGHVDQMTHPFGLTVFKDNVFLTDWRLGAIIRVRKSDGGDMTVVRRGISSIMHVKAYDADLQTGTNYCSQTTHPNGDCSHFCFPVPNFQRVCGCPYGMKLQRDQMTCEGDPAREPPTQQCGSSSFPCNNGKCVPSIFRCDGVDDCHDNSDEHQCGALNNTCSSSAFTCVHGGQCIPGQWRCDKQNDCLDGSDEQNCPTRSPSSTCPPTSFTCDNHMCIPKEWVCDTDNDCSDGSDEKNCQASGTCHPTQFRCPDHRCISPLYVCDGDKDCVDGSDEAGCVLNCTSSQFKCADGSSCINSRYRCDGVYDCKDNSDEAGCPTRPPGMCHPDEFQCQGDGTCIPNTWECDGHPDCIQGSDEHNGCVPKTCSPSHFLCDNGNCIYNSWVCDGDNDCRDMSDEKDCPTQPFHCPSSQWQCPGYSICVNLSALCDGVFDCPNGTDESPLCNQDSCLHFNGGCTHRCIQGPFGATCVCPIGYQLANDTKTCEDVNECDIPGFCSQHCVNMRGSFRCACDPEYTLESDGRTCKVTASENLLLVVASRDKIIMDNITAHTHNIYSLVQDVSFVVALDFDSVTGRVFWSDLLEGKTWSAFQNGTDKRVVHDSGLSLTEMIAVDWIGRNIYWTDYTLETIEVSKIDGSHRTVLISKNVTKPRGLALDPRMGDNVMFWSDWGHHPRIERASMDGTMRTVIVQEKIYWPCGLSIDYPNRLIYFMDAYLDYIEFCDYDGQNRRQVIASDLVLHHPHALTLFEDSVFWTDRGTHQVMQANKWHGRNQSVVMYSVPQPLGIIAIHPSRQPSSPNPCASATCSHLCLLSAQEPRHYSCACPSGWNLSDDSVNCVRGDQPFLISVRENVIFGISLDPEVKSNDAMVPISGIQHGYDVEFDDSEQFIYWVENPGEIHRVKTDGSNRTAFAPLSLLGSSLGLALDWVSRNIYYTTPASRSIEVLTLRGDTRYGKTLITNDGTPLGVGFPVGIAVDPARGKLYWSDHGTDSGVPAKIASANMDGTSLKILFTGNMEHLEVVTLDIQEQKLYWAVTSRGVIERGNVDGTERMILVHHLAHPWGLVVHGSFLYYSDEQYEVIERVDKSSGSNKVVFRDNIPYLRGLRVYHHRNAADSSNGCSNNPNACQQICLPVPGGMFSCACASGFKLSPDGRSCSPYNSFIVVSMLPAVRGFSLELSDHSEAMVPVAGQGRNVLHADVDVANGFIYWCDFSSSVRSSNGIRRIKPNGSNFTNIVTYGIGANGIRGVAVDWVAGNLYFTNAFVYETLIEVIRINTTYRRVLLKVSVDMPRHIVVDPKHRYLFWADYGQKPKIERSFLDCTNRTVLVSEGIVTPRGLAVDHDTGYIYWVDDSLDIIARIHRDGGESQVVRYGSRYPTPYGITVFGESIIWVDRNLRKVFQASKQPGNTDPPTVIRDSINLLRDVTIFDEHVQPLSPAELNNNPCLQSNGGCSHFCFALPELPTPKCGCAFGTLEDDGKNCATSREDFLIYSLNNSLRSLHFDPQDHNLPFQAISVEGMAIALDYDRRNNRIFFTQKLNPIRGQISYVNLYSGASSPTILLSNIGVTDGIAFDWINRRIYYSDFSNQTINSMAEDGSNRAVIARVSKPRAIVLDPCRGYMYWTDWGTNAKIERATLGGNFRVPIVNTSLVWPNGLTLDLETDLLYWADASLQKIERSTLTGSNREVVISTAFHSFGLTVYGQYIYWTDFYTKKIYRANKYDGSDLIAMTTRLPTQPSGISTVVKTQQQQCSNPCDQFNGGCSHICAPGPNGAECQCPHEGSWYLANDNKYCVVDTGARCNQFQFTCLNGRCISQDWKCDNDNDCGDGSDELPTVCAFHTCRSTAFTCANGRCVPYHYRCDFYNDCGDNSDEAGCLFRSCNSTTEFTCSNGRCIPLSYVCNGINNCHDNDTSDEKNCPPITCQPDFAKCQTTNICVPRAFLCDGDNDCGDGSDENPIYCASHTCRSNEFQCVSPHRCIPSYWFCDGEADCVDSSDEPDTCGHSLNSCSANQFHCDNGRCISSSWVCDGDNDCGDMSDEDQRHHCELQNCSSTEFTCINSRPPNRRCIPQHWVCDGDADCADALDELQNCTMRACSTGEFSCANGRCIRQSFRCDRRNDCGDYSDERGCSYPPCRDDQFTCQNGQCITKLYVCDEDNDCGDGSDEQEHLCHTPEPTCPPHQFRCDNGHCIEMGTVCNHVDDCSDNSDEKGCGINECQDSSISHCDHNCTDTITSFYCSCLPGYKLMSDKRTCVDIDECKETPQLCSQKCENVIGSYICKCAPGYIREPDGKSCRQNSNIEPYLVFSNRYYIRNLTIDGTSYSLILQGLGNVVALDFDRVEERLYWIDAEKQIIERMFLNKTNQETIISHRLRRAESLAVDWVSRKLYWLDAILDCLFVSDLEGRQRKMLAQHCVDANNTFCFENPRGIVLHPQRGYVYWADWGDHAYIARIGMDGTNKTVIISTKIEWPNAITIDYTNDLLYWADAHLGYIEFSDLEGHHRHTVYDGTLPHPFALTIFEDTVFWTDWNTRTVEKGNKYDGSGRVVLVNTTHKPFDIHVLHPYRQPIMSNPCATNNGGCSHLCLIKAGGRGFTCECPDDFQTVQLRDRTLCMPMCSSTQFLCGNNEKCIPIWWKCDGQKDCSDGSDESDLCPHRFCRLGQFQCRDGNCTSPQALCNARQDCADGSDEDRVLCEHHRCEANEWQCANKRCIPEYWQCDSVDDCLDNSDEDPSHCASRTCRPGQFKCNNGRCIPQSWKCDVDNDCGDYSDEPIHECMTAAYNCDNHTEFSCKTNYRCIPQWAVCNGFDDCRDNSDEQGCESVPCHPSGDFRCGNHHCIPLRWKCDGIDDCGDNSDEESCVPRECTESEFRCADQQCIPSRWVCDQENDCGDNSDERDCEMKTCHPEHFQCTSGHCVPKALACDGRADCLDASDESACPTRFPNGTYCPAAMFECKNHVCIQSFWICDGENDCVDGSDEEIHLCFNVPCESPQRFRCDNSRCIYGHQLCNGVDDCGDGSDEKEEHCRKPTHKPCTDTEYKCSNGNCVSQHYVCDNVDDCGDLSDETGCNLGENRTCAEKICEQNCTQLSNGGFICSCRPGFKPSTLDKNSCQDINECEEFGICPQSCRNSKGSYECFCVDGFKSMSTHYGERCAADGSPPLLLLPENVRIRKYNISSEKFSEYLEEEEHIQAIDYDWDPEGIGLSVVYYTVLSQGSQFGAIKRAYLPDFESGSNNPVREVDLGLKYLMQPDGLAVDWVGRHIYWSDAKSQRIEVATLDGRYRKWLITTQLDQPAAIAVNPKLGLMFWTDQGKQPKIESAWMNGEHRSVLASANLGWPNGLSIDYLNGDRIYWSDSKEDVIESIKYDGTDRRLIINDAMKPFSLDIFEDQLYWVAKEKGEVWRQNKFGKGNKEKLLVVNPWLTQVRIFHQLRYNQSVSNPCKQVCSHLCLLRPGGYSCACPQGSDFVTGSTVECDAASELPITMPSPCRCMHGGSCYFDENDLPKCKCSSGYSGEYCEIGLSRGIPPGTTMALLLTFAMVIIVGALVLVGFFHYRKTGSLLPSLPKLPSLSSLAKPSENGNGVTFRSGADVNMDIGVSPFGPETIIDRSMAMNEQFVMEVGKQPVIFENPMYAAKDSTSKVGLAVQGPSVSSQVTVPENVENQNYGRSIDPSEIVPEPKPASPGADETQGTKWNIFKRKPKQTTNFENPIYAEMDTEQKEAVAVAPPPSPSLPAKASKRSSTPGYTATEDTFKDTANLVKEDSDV

| SMILES | iodine contents detected in kidney slices by EPMA, NDRG1-Cre mice versus control mice [5] | iodine detected in kidney slices by EPMA, control mice [6] | other results |
| --- | --- | --- | --- |
| CC1(C)C[C@@H]1C(=O)N/C(=C\CCCCSC[C@H](N)C(=O)O)C(=O)O [cilastatin, (Z)-7-[[(R)-2-amino-2-carboxyethyl]thio]-2-[[[(S)-2,2-dimethylcyclopropyl]carbonyl]amino]-2-heptenoic acid] | – | – | band corresponding to the protein of interest bound to contrast-bound beads, in the coexistence of cilastatin [1]: decreased; increase in urinary KIM-1 levels versus contrast medium+normal saline group ([2]; 48 h, FIG. 16): significantly (t-test) reduced; percentage of individuals with onset of contrast nephropathy ([2]; 48 h after medication): 0%; expression of KIM-1 in kidney tissue (staining intensity scores) versus contrast medium+normal saline group ([2]; outer cortices (S1 and S2 segments), FIG. 18): significantly (t-test) lower; detection of iodine by EPMA in kidney tissue versus contrast medium+normal saline groups ([3]; 400 mg/kg cilastatin + 100 μL contrast medium, tail vein, FIG. 11 (iomeprol)): decrease in the detection of iodine; I/N X-ray ratio in kidney cortex versus contrast medium+normal saline groups ([3]; 400 mg/kg cilastatin + 100 μL iomeprol, iohexol, ioversol or iodixanol, six individuals per group, FIGS. 12 to 15): significantly (t-test) lower; change in frequency after injection of the protein of interest onto megalin-immobilized quartz crystals (QCM) [4]: reduced |
| CC(=O)N(CC(O)CN(C(C)=O)c1c(I)c(C(=O)NCC(O)CO)c(I)c(C(=O)NCC(O)CO)c1I)c1c(I)c(C(=O)NCC(O)CO)c(I)c(C(=O)NCC(O)CO)c1I (stereo not shown) [iodixanol] | lower | High concentrations of iodine were detected | – |
| CC(=O)N(CC(O)CO)c1c(I)c(C(=O)NCC(O)CO)c(I)c(C(=O)NCC(O)CO)c1I (stereo not shown) [iohexol] | lower | High concentrations of iodine were detected | – |
| C[C@H](O)C(=O)Nc1c(I)c(C(=O)NC(CO)CO)c(I)c(C(=O)NC(CO)CO)c1I [iopamidol] | lower | High concentrations of iodine were detected | – |
| COCC(=O)Nc1c(I)c(C(=O)NCC(O)CO)c(I)c(C(=O)N(C)CC(O)CO)c1I (stereo not shown) [iopromide] | lower | High concentrations of iodine were detected | – |
| O=C(NCC(O)CO)c1c(I)c(C(=O)NCC(O)CO)c(I)c(N(CCO)C(=O)CO)c1I (stereo not shown) [ioversol] | lower | – | – |
